According to PubChem BioAssay (NCI):
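Each compound was tested at five concentrations against cells in 96-well plates for 48 hours. TGI marks complete inhibition of growth.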

Columns and labels:
Test in all cases: growth of human tumour cells (NCI), 48 h
EKVX NSCLC = test system: EKVX NSCLC
OVCAR-4 ovarian = test system: OVCAR-4 ovarian
SK-MEL-28 melanoma = test system: SK-MEL-28 melanoma
HCC-2998 colon = test system: HCC-2998 colon
MDA-N = test system: MDA-N
BT-549 breast = test system: BT-549 breast
OVCAR-5 ovarian = test system: OVCAR-5 ovarian
HOP-62 NSCLC = test system: HOP-62 NSCLC
SK-OV-3 ovarian = test system: SK-OV-3 ovarian
K-562 leukemia = test system: K-562 leukemia
COLO 205 colon = test system: COLO 205 colon
HT29 colon = test system: HT29 colon
KM12 colon = test system: KM12 colon
IGROV1 ovarian = test system: IGROV1 ovarian
SN12C renal = test system: SN12C renal
NCI-H460 lung = test system: NCI-H460 lung
RPMI-8226 leukemia = test system: RPMI-8226 leukemia
HS 578T breast = test system: HS 578T breast
SR leukemia = test system: SR leukemia
SF-268 CNS = test system: SF-268 CNS
A498 renal = test system: A498 renal
SK-MEL-2 melanoma = test system: SK-MEL-2 melanoma
MCF7 breast = test system: MCF7 breast
NCI-H226 lung = test system: NCI-H226 lung
SF-539 CNS = test system: SF-539 CNS
HCT-15 colon = test system: HCT-15 colon
TK-10 renal = test system: TK-10 renal
NCI-H522 lung = test system: NCI-H522 lung
UACC-62 melanoma = test system: UACC-62 melanoma
U251 CNS = test system: U251 CNS
MOLT-4 leukemia = test system: MOLT-4 leukemia
786-0 renal = test system: 786-0 renal
PC-3 prostate = test system: PC-3 prostate
MDA-MB-231 breast = test system: MDA-MB-231 breast
LOX IMVI melanoma = test system: LOX IMVI melanoma
CAKI-1 renal = test system: CAKI-1 renal
SNB-19 CNS = test system: SNB-19 CNS
SF-295 CNS = test system: SF-295 CNS
UACC-257 melanoma = test system: UACC-257 melanoma
M14 melanoma = test system: M14 melanoma
OVCAR-3 ovarian = test system: OVCAR-3 ovarian
MDA-MB-435 = test system: MDA-MB-435
HCT-116 colon = test system: HCT-116 colon
OVCAR-8 ovarian = test system: OVCAR-8 ovarian
DU-145 prostate = test system: DU-145 prostate
UO-31 renal = test system: UO-31 renal
HOP-92 NSCLC = test system: HOP-92 NSCLC
ACHN renal = test system: ACHN renal
MALME-3M melanoma = test system: MALME-3M melanoma
T-47D breast = test system: T-47D breast
SNB-75 CNS = test system: SNB-75 CNS
SW-620 colon = test system: SW-620 colon
SK-MEL-5 melanoma = test system: SK-MEL-5 melanoma
NCI/ADR-RES ovarian = test system: NCI/ADR-RES ovarian
NCI-H23 lung = test system: NCI-H23 lung
A549 NSCLC = test system: A549 NSCLC
HL-60(TB) leukemia = test system: HL-60(TB) leukemia
CCRF-CEM leukemia = test system: CCRF-CEM leukemia
RXF 393 renal = test system: RXF 393 renal

Measured: TGI

Cc1oc2c(c1C)S(=O)(=O)C(C#N)=CN2
not listed: HL-60(TB) leukemia | CCRF-CEM leukemia | RXF 393 renal
> 100 µM: all other assays above

COc1ccc2c3c1O[C@H]1C(=O)C=CC4(n5[nH]c(=O)n(-c6ccccc6)c5=O)C(C2)N(C)CCC314 (stereo not given in full)
not listed: HCC-2998 colon | NCI-H460 lung | UACC-257 melanoma | SNB-75 CNS | RXF 393 renal
> 100 µM: all other assays above

O=C(O)COc1cc(-c2ccccc2)nc2ccc(F)cc12
not listed: RXF 393 renal
> 100 µM: all other assays above

COC(=O)C(CCC1CC(OC)N(C(=O)OCc2ccccc2)C1)N=Cc1ccccc1 (stereo not given)
83.9 µM: SK-MEL-5 melanoma
78.8 µM: SK-MEL-2 melanoma
91.7 µM: RPMI-8226 leukemia
78.7 µM: COLO 205 colon
72.9 µM: NCI-H522 lung
not listed: MALME-3M melanoma
> 100 µM: all other assays above

COC(=O)c1c2c(c3[nH]c4ccccc4c3c1C(=O)OC)C(=O)C1=C(C2=O)C2(Cl)C(Cl)C(Cl)C1(Cl)C2(Cl)Cl (stereo not given)
3.09 µM: MDA-MB-435
3.67 µM: MOLT-4 leukemia
8.65 µM: UO-31 renal
3.19 µM: COLO 205 colon
4.51 µM: SF-539 CNS
2.97 µM: SK-MEL-28 melanoma
21.7 µM: HOP-62 NSCLC
17.3 µM: KM12 colon
8.98 µM: OVCAR-3 ovarian
5.68 µM: M14 melanoma
6.17 µM: HCC-2998 colon
9.19 µM: CAKI-1 renal
4.59 µM: UACC-62 melanoma
7.19 µM: NCI/ADR-RES ovarian
17.5 µM: TK-10 renal
10.8 µM: PC-3 prostate
5.09 µM: RPMI-8226 leukemia
7.48 µM: U251 CNS
2.72 µM: NCI-H522 lung
90.9 µM: SF-295 CNS
3.03 µM: A498 renal
7.07 µM: HT29 colon
13.8 µM: NCI-H460 lung
20.8 µM: HS 578T breast
5.98 µM: SN12C renal
7.59 µM: MDA-MB-231 breast
6.84 µM: SF-268 CNS | SNB-75 CNS
37 µM: SK-OV-3 ovarian
4.34 µM: BT-549 breast
3.91 µM: LOX IMVI melanoma
7.78 µM: HL-60(TB) leukemia
16.3 µM: T-47D breast
24.7 µM: SNB-19 CNS
2.75 µM: MDA-N | SK-MEL-5 melanoma
5.28 µM: OVCAR-8 ovarian
6.31 µM: OVCAR-4 ovarian
2.63 µM: SR leukemia
4.05 µM: MALME-3M melanoma
3.42 µM: MCF7 breast
23.2 µM: K-562 leukemia
6.15 µM: CCRF-CEM leukemia
8.52 µM: IGROV1 ovarian
> 100 µM: EKVX NSCLC | OVCAR-5 ovarian | HCT-116 colon | DU-145 prostate | A549 NSCLC
1.4 µM: SW-620 colon
4.04 µM: NCI-H23 lung
3.68 µM: HOP-92 NSCLC
4.6 µM: ACHN renal
8.07 µM: 786-0 renal
